Test results from US10934283B2, “COMT inhibiting methods and compositions” (LIEBER INSTITUTE FOR BRAIN DEVELOPMENT, priority 2015, dated 2021).

What follows are molecules tested against T1, catechol-O-methyltransferase (COMT) (Homo sapiens, UniProt P21964) (assay: COMT inhibition assay (HTRF, production of SAH from SAM)). Details: table does not say MB-COMT or S-COMT.
T1 construct: M51A variant) was expressed in HEK 293F cells
T1 sequence (P21964 52-271 limits assumed): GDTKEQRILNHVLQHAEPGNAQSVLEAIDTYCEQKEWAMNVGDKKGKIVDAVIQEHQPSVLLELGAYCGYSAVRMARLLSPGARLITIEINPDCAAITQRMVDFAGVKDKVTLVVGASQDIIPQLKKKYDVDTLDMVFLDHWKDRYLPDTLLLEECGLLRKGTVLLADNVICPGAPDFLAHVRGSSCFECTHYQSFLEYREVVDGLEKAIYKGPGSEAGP
Type: biochemical
Experimental: The ability of compounds to inhibit the activity of catechol-O-methyltransferase (COMT) was determined by a homogenous time-resolved fluorescent (HTRF) assay (Lina et al, 2012; kit from CisBio, Codolet, France). This assay measures the production of S-adenosyl homocysteine (SAH) from the methyl donor S-adenosyl methionine. Recombinant human membrane bound COMT (MB-COMT; M51A variant) was expressed in HEK 293F cells using 293Fectin (Life Technologies, Gent, Belgium) and membranes prepared. The membranes were re-suspended in buffer (20 mM Tris/HCl pH 7; 10 mM glycerol; 2 mM MgCl2; 10 mM NaCl), aliquoted and stored at −80° C. Recombinant human soluble COMT(S-COMT), Val158 variant and a hexa-His tag on the N-terminus, was purified using Ni-NTA chromatography, the His tag removed and stored in buffer as above.
For the human MB-COMT assay, membranes (62 ng/well) were incubated with SAM (20 μM final, CisBio) and dopamine (1.5 μM final; Sigma H8502, Diegem, Belgium) in the presence or absence of varying concentrations (typically 10 concentrations ranging from 10 ? M to 0.1 nM) of compound for 40 min at 37° C. in 384-well microtiter plates (10 ? l per well final volume). The reaction was terminated by the addition of acylation buffer and the amount of SAH produced determined according to manufacturer's instructions. Specific inhibition as that inhibited by a high concentration of tolcapone and all experiments were validated using a control curve to tolcapone.
The human S-COMT assay was performed as above except that 0.15 ng enzyme/well was incubated with SAM ([…]) and dopamine (100 μM final) for 15 min at 37° C. and SAH production determined.
HTRF readings were performed using a Perkin Elmer Envision and results expressed as concentration of SAH produced using a standard curve. Results were analyzed using non-linear regression to the 4-parameter logistic equation and pIC50 (−log 10 concentration of drug which inhibits enzyme activity/SAH production by 50%) determined.
`Cc1ccc(C)c(CN2CCn3cc(O)c(=O)cc3C2)c1` [Example 28, 2-(2,5-dimethylbenzyl)-7-hydroxy-1,2,3,4-tetrahydro-8H-pyrido[1,2-a]pyrazin-8-one] was tested, and the “Activity range (pIC50)” value was “+++ (three plus signs (+++) is associated with a pIC50 of above about 7)”.
With `O=c1cc2n(cc1O)CCN(Cc1cc3ccccc3n1S(=O)(=O)c1ccccc1)C2` [Example 29, 7-hydroxy-2-{[1-(phenylsulfonyl)-1H-indol-2-yl]methyl}-1,2,3,4-tetrahydro-8H-pyrido[1,2-a]pyrazin-8-one] the “Activity range (pIC50)” value was “+++ (three plus signs (+++) is associated with a pIC50 of above about 7)”.
In the case of `O=c1cc2n(cc1O)CCN(CCCc1ccccc1)C2` [Example 30, 7-hydroxy-2-(3-phenylpropyl)-1,2,3,4-tetrahydro-8H-pyrido[1,2-a]pyrazin-8-one], the “Activity range (pIC50)” value is reported as “++ (two plus signs (++) is associated with a pIC50 of from about 6 to 7)”.
For `CC(CN1CCn2cc(O)c(=O)cc2C1)c1ccccc1` (stereo not shown) [Example 31, 7-hydroxy-2-(2-phenylpropyl)-1,2,3,4-tetrahydro-8H-pyrido[1,2-a]pyrazin-8-one], the “Activity range (pIC50)” value was “++ (two plus signs (++) is associated with a pIC50 of from about 6 to 7)”.
For `O=c1cc2n(cc1O)CCN(Cc1cc(F)cc(F)c1)C2` [Example 32, 2-(3,5-difluorobenzyl)-7-hydroxy-1,2,3,4-tetrahydro-8H-pyrido[1,2-a]pyrazin-8-one], the “Activity range (pIC50)” value was “++ (two plus signs (++) is associated with a pIC50 of from about 6 to 7)”.
`Cc1ccccc1CN1CCn2cc(O)c(=O)cc2C1` [Example 33, 7-hydroxy-2-(2-methylbenzyl)-1,2,3,4-tetrahydro-8H-pyrido[1,2-a]pyrazin-8-one] was tested, and the “Activity range (pIC50)” value was “+++ (three plus signs (+++) is associated with a pIC50 of above about 7)”.
For `O=c1cc2n(cc1O)CCN(Cc1cc(-c3ccccc3)[nH]n1)C2` [Example 34, 7-hydroxy-2-[(5-phenyl-1H-pyrazol-3-yl)methyl]-1,2,3,4-tetrahydro-8H-pyrido[1,2-a]pyrazin-8-one], the “Activity range (pIC50)” value was “++ (two plus signs (++) is associated with a pIC50 of from about 6 to 7)”.
In the case of `O=c1cc2n(cc1O)CCN(Cc1cc(Cl)cc3c1OCCC3c1c[nH]cn1)C2` (stereo not shown) [Example 35, 2-{[6-chloro-4-(1H-imidazol-4-yl)-3,4-dihydro-2H-chromen-8-yl]methyl}-7-hydroxy-1,2,3,4-tetrahydro-8H-pyrido[1,2-a]pyrazin-8-one], the “Activity range (pIC50)” value is reported as “++ (two plus signs (++) is associated with a pIC50 of from about 6 to 7)”.
For `O=c1cc2n(cc1O)CCN(Cc1cccc(Oc3ccccc3)c1)C2` [Example 36, 7-hydroxy-2-(3-phenoxybenzyl)-1,2,3,4-tetrahydro-8H-pyrido[1,2-a]pyrazin-8-one], the “Activity range (pIC50)” value was “+++ (three plus signs (+++) is associated with a pIC50 of above about 7)”.
`Cc1cccc(CN2CCn3cc(O)c(=O)cc3C2)c1C` [Example 37, 2-(2,3-dimethylbenzyl)-7-hydroxy-1,2,3,4-tetrahydro-8H-pyrido[1,2-a]pyrazin-8-one] was tested, and the “Activity range (pIC50)” value was “+++ (three plus signs (+++) is associated with a pIC50 of above about 7)”.
In the case of `O=c1cc2n(cc1O)CCN(Cc1nc3ccccc3s1)C2` [Example 38, 2-(1,3-benzothiazol-2-ylmethyl)-7-hydroxy-1,2,3,4-tetrahydro-8H-pyrido[1,2-a]pyrazin-8-one], the “Activity range (pIC50)” value is reported as “++ (two plus signs (++) is associated with a pIC50 of from about 6 to 7)”.
In the case of `O=c1cc2n(cc1O)CCN(Cc1ccccc1F)C2` [Example 39, 2-(2-fluorobenzyl)-7-hydroxy-1,2,3,4-tetrahydro-8H-pyrido[1,2-a]pyrazin-8-one], the “Activity range (pIC50)” value is reported as “+++ (three plus signs (+++) is associated with a pIC50 of above about 7)”.
With `Cc1nn(C)c(Cl)c1CN1CCn2cc(O)c(=O)cc2C1` [Example 40, 2-[(5-chloro-1,3-dimethyl-1H-pyrazol-4-yl)methyl]-7-hydroxy-1,2,3,4-tetrahydro-8H-pyrido[1,2-a]pyrazin-8-one] the “Activity range (pIC50)” value was “++ (two plus signs (++) is associated with a pIC50 of from about 6 to 7)”.
`O=c1cc2n(cc1O)CCN(Cc1coc3ccccc3c1=O)C2` [Example 41, 7-hydroxy-2-[(4-oxo-4H-chromen-3-yl)methyl]-1,2,3,4-tetrahydro-8H-pyrido[1,2-a]pyrazin-8-one] was tested, and the “Activity range (pIC50)” value was “++ (two plus signs (++) is associated with a pIC50 of from about 6 to 7)”.
For `O=c1cc2n(cc1O)CCN(Cc1n[nH]c3ccccc13)C2` [Example 42, 7-hydroxy-2-(1H-indazol-3-ylmethyl)-1,2,3,4-tetrahydro-8H-pyrido[1,2-a]pyrazin-8-one], the “Activity range (pIC50)” value was “++ (two plus signs (++) is associated with a pIC50 of from about 6 to 7)”.
In the case of `O=c1cc2n(cc1O)CCN(Cc1c[nH]nc1-c1cccs1)C2` [Example 43, 7-hydroxy-2-{[3-(thiophen-2-yl)-1H-pyrazol-4-yl]methyl}-1,2,3,4-tetrahydro-8H-pyrido[1,2-a]pyrazin-8-one], the “Activity range (pIC50)” value is reported as “++ (two plus signs (++) is associated with a pIC50 of from about 6 to 7)”.
`O=c1cc2n(cc1O)CCN(Cc1ccccc1C(F)(F)F)C2` [Example 44, 7-hydroxy-2-[2-(trifluoromethyl)benzyl]-1,2,3,4-tetrahydro-8H-pyrido[1,2-a]pyrazin-8-one] was tested, and the “Activity range (pIC50)” value was “+++ (three plus signs (+++) is associated with a pIC50 of above about 7)”.
In the case of `O=c1cc2n(cc1O)CCN(Cc1c[nH]nc1-c1ccccc1)C2` [Example 45, 7-hydroxy-2-[(3-phenyl-1H-pyrazol-4-yl)methyl]-1,2,3,4-tetrahydro-8H-pyrido[1,2-a]pyrazin-8-one], the “Activity range (pIC50)” value is reported as “++ (two plus signs (++) is associated with a pIC50 of from about 6 to 7)”.
`COc1cccc(OC)c1CN1CCn2cc(O)c(=O)cc2C1` [Example 46, 2-(2,6-dimethoxybenzyl)-7-hydroxy-1,2,3,4-tetrahydro-8H-pyrido[1,2-a]pyrazin-8-one] was tested, and the “Activity range (pIC50)” value was “++ (two plus signs (++) is associated with a pIC50 of from about 6 to 7)”.
`O=c1cc2n(cc1O)CCN(Cc1ccc(Oc3ccccc3)cc1)C2` [Example 47, 7-hydroxy-2-(4-phenoxybenzyl)-1,2,3,4-tetrahydro-8H-pyrido[1,2-a]pyrazin-8-one] was tested, and the “Activity range (pIC50)” value was “+++ (three plus signs (+++) is associated with a pIC50 of above about 7)”.
With `O=c1cc2n(cc1O)CCN(Cc1ccc3c(c1)OCCO3)C2` [Example 48, 2-(2,3-dihydro-1,4-benzodioxin-6-ylmethyl)-7-hydroxy-1,2,3,4-tetrahydro-8H-pyrido[1,2-a]pyrazin-8-one] the “Activity range (pIC50)” value was “++ (two plus signs (++) is associated with a pIC50 of from about 6 to 7)”.
`CC(Cc1ccc2c(c1)OCO2)CN1CCn2cc(O)c(=O)cc2C1` (stereo not shown) [Example 49, 2-[3-(1,3-benzodioxol-5-yl)-2-methylpropyl]-7-hydroxy-1,2,3,4-tetrahydro-8H-pyrido[1,2-a]pyrazin-8-one] was tested, and the “Activity range (pIC50)” value was “++ (two plus signs (++) is associated with a pIC50 of from about 6 to 7)”.
`COc1ccc(CN2CCn3cc(O)c(=O)cc3C2)cc1` [Example 50, 7-hydroxy-2-(4-methoxybenzyl)-1,2,3,4-tetrahydro-8H-pyrido[1,2-a]pyrazin-8-one] was tested, and the “Activity range (pIC50)” value was “++ (two plus signs (++) is associated with a pIC50 of from about 6 to 7)”.
`COc1ccccc1CN1CCn2cc(O)c(=O)cc2C1` [Example 51, 7-hydroxy-2-(2-methoxybenzyl)-1,2,3,4-tetrahydro-8H-pyrido[1,2-a]pyrazin-8-one] was tested, and the “Activity range (pIC50)” value was “++ (two plus signs (++) is associated with a pIC50 of from about 6 to 7)”.
With `O=c1cc2n(cc1O)CCN(Cc1ccc(OCc3ccccc3)cc1)C2` [Example 52, 2-[4-(benzyloxy)benzyl]-7-hydroxy-1,2,3,4-tetrahydro-8H-pyrido[1,2-a]pyrazin-8-one] the “Activity range (pIC50)” value was “+++ (three plus signs (+++) is associated with a pIC50 of above about 7)”.
In the case of `O=c1cc2n(cc1O)CCN(Cc1cccc(OCc3ccccc3)c1)C2` [Example 53, 2-[3-(benzyloxy)benzyl]-7-hydroxy-1,2,3,4-tetrahydro-8H-pyrido[1,2-a]pyrazin-8-one], the “Activity range (pIC50)” value is reported as “+++ (three plus signs (+++) is associated with a pIC50 of above about 7)”.
`O=c1cc2n(cc1O)CCN(Cc1ccc3nsnc3c1)C2` [Example 54, 2-(2,1,3-benzothiadiazol-5-ylmethyl)-7-hydroxy-1,2,3,4-tetrahydro-8H-pyrido[1,2-a]pyrazin-8-one] was tested, and the “Activity range (pIC50)” value was “++ (two plus signs (++) is associated with a pIC50 of from about 6 to 7)”.
With `O=c1cc2n(cc1O)CCN(Cc1ccccc1OCc1ccccc1)C2` [Example 55, 2-[2-(benzyloxy)benzyl]-7-hydroxy-1,2,3,4-tetrahydro-8H-pyrido[1,2-a]pyrazin-8-one] the “Activity range (pIC50)” value was “++ (two plus signs (++) is associated with a pIC50 of from about 6 to 7)”.
